Measurements as given in patent US20070213359A1 (ACADIA Pharmaceuticals Inc., priority 2005, published 2007).
Like-named read-outs stand apart in the source and are kept apart here.

Molecular target: Ghrelin receptor (Homo sapiens, UniProt Q92847)
Experiment: Receptor Selection and Amplification Technology (R-SAT) assay
Format: cell-based
Design: expressed in transfected cells; host or cells: NIH3T3
Conditions: for IC50: negative logarithm of ligand concentration causing 50% inhibition of constitutive receptor response, transfected NIH3T3 cells, '—' not defined (nd used separately), read-out: RSAT pIC50 (converted); for Emax: read-out: RSAT Eff(%)
[1] = percent inhibition at saturating ligand, normalized to reference ligand Substance P analog = 100%

Ghrelin receptor, sequence (Q92847 whole entry): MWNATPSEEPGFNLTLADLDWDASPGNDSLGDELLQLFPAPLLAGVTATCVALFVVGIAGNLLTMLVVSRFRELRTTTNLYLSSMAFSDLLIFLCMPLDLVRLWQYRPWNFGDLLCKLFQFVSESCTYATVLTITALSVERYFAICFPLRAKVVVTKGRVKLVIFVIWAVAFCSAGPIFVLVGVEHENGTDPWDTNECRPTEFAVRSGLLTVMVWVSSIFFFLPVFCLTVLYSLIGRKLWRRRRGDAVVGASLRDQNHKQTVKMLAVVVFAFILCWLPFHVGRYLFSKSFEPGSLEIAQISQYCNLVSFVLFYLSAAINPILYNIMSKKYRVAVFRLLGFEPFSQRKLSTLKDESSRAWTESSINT

## CC(=O)c1cn(CCCCN2CCC(Cc3ccccc3)CC2)c2ccccc12
  IC50: 3.98 µM
[1]
  Emax: 86%

## COc1ccccc1C1CCN(CCCn2cc(CCC(C)=O)c3ccccc32)CC1
  IC50: 5.01 µM
[1]
  Emax: 78%

## CC(=O)c1cn(CCCN2CCC(Oc3ccccc3Cl)CC2)c2cc(Br)ccc12
  IC50: 5.01 µM
[1]
  Emax: 67%

## CC(=O)c1cn(CCCN2CCC(C(=O)c3ccccc3)CC2)c2ccccc12
  IC50: 5.01 µM
[1]
  Emax: 64%

## O=C(c1cn(CCCN2CCC(Cc3ccccc3)CC2)c2ccccc12)C(F)(F)F
  IC50: 6.31 µM
[1]
  Emax: 112%

## CC(=O)c1cn(CC(O)CN2CCC(C(=O)c3ccccc3)CC2)c2ccccc12 (stereo not drawn)
  IC50: 6.31 µM
[1]
  Emax: 26%

## CC(=O)c1cn(CCCNC2Cc3ccccc3C2)c2c(Cl)cccc12
  IC50: 6.31 µM
[1]
  Emax: 96%

## CCOC(=O)C1CCN(CCCn2cc(C(=O)CC)c3ccccc32)CC1
  IC50: 6.31 µM
[1]
  Emax: 39%

## COc1cccc2c(C(C)=O)cn(CCCN3CCC(S(=O)(=O)c4ccc(Cl)cc4)CC3)c12
  IC50: 10 µM
[1]
  Emax: 71%

## CC(=O)c1cn(CCCN2C3CCC2CC(Oc2ccc(Cl)cc2)C3)c2cc(Br)ccc12 (stereo not drawn)
  IC50: 10 µM
[1]
  Emax: 74%

## CC(=O)c1cn(CCCN2CCC(C(=O)c3ccccc3)CC2)c2ccc(Br)cc12
  IC50: 10 µM
[1]
  Emax: 60%

## CCCOC1CCN(CCCn2cc(CCC(C)=O)c3ccccc32)CC1
  IC50: 15.8 µM
[1]
  Emax: 75%

## CCC(=O)c1cn(CCCN2CCC(C(=O)c3ccccc3)CC2)c2ccccc12
  IC50: 15.8 µM
[1]
  Emax: 53%

## COc1ccccc1C1CCN(CC(C)Cn2cc(C(C)=O)c3ccccc32)CC1 (stereo not drawn)
  IC50: 15.8 µM
[1]
  Emax: 64%

## CC(=O)c1cn(CCCN2CCC(Oc3ccccc3Cl)CC2)c2ccc(Br)cc12
  IC50: 15.8 µM
[1]
  Emax: 74%

## CC(=O)c1cn(CCCN2CCC(c3nc(-c4cccnc4)no3)CC2)c2ncccc12
  IC50: 20 µM
[1]
  Emax: 55%

## CCCOC1CCN(CC(O)Cn2cc(C(C)=O)c3ccccc32)CC1 (stereo not drawn)
  IC50: 31.6 µM
[1]
  Emax: 18%

## COc1ccc2c(c1)c(C(C)=O)cn2CCCN1C2CCC1CC(OCC1CC1)C2 (stereo not drawn)
  IC50: 31.6 µM
[1]
  Emax: 74%

## O=C(c1cn(CCCN2C3CCC2CC(O)(c2ccc(F)cc2)C3)c2ccccc12)C(F)(F)F (stereo not drawn)
  IC50: 251 µM
[1]
  Emax: 58%

## CC(=O)c1cn(CCCN2CCC(C(=O)c3ccccc3)CC2)c2c(Cl)cccc12
  IC50: 1580 µM
[1]
  Emax: 92%

## COc1cccc2c(C#N)cn(CCCN3CCC(c4nc(-c5ccncc5)no4)CC3)c12
[1]
  Emax: 40%

## CC(=O)c1c(C)n(CCCN2CCCC(Oc3ccc(Cl)cc3)C2)c2c(Br)cccc12 (stereo not drawn)
  Emax: 24%

## CC(=O)c1c(C)n(CCCN2CCCC(Cc3ccccc3Cl)C2)c2c(Br)cccc12 (stereo not drawn)
  Emax: 5%

## CC(=O)c1c(C)n(CCCN2CCC(Cc3ccccc3Cl)C2)c2c(Br)cccc12 (stereo not drawn)
  Emax: 38%

## COc1cccc2c(C(C)=O)cn(CC(C)CN3CCCC(Oc4ccc(Cl)cc4)C3)c12 (stereo not drawn)
  Emax: -1%

## COc1cccc2c(C(C)=O)cn(CC(C)CN3C4CCC3CC(Oc3ccc(F)cc3)C4)c12 (stereo not drawn)
  Emax: 44%

## COc1cccc2c(C(C)=O)cn(CC(C)CN3CCC(CCOc4ccc(Cl)cc4)CC3)c12 (stereo not drawn)
  Emax: 22%

## O=C(c1cn(CCCN2CCCC(Cc3ccccc3Cl)C2)c2ncccc12)C(F)(F)F (stereo not drawn)
[1]
  Emax: 27%

## O=C(c1cn(CCCN2CCC(Oc3cccc(Cl)c3)CC2)c2ncccc12)C(F)(F)F
[1]
  Emax: 23%

## CC(CN1C2CCC1CC(Oc1ccc(F)cc1)C2)Cn1cc(C(=O)C(F)(F)F)c2cccnc21 (stereo not drawn)
[1]
  Emax: 35%

## CC(=O)c1cn(CCCN2CCCC(Oc3ccc(Cl)cc3)C2)c2ncccc12 (stereo not drawn)
[1]
  Emax: 53%

## COc1cccc2c(C#N)cn(CCCN3CCCC(Oc4ccc(Cl)cc4)C3)c12 (stereo not drawn)
[1]
  Emax: 48%

## CC(=O)c1cn(CCCN2CCCC(Oc3ccc(Cl)cc3)C2)c2c(C#N)cccc12 (stereo not drawn)
  Emax: 31%

## CC(=O)c1cn(CCCN2C3CCC2CC(CC(=O)c2ccc(Cl)cc2)C3)c2c(C#N)cccc12 (stereo not drawn)
  Emax: 31%

## CCCCC1CCN(CCn2cc(C(C)=O)c3ccccc32)CC1
  Emax: 23%

## COc1ccc2[nH]c3c(c2c1)CCN(CC(C)Cn1c(=O)sc2ccccc21)C3 (stereo not drawn)
[1]
  Emax: -10%

## COc1ccc2[nH]c3c(c2c1)CCN(CCCCn1cc(C(C)=O)c2ccccc21)C3
[1]
  Emax: 9%

## CC(=O)c1cn(CC(C)CN2CCC(C(=O)c3ccccc3)CC2)c2ccccc12 (stereo not drawn)
  Emax: 2%

## CC(=O)c1cn(CCCCN2CCC(C(=O)c3ccccc3)CC2)c2ccccc12
  Emax: 38%

## CC(=O)c1cn(CCCCN2CCC(Oc3ccc(F)cc3)CC2)c2ccccc12
  Emax: 41%

## CC(=O)c1cn(CC(O)CN2CCN(C(C)c3ccccc3)CC2)c2ccccc12 (stereo not drawn)
  Emax: 23%

## CC(=O)c1cn(CC(C)CN2CCC(O)(Cc3ccccc3)CC2)c2ccccc12 (stereo not drawn)
  Emax: -3%

## CC(=O)c1cn(CCCCN2CCC(O)(Cc3ccccc3)CC2)c2ccccc12
  Emax: 24%

## CC(=O)c1cn(CCCCN2C3CCC2CC(O)(c2ccc(F)cc2)C3)c2ccccc12 (stereo not drawn)
  Emax: 2%

## CCC(=O)c1cn(CCCN2C3CCC2CC(O)(c2ccc(F)cc2)C3)c2ccccc12 (stereo not drawn)
  Emax: 18%

## O=C(c1cn(CCCN2CCC(S(=O)(=O)c3ccc(Cl)cc3)CC2)c2ccccc12)C(F)(F)F
  Emax: 6%

## CCC(=O)c1cn(CCCN2CCC(S(=O)(=O)c3ccc(Cl)cc3)CC2)c2ccccc12
  Emax: 1%

## CCN(CC)C(=O)C1CCCN(CCCn2cc(C(C)=O)c3cccc(OC)c32)C1 (stereo not drawn)
  Emax: 16%

## COc1cccc2c(C(C)=O)cn(CCCN3C4CCC3CC(O)(c3ccc(F)cc3)C4)c12 (stereo not drawn)
  Emax: 3%

## COc1cccc2c(C#N)cn(CCCN3CCN(CCOc4ccc(Cl)c5ccccc45)CC3)c12
[1]
  Emax: 21%

## CC(=O)c1cn(CCCN2CCC(CCOc3ccc(Cl)cc3)CC2)c2c(Cl)cccc12
  Emax: 53%

## CC(=O)c1cn(CCCN2CCN(CCOc3ccc(Cl)cc3)CC2)c2c(C)cccc12
  Emax: 53%

## CC(=O)c1cn(CCCN2CCN(CCOc3ccc(Cl)cc3)CC2)c2c(Br)cccc12
  Emax: 12%

## COc1cccc2c(C(=O)C3CC3)cn(CCCN3CCN(CCOc4ccc(Cl)c5ccccc45)CC3)c12
  Emax: 44%

## CC(=O)c1cn(CCCN2CCN(CCOc3ccc(Cl)cc3)CC2)c2c(Cl)cccc12
  Emax: 32%

## COc1cccc2c(C(=O)NCc3cccc(C)c3)cn(CCCN3CCN(CCOc4ccc(Cl)c5ccccc45)CC3)c12
  Emax: 2%

## COc1cccc2c(C(=O)NCc3cccc(Cl)c3)cn(CCCN3CCN(CCOc4ccc(Cl)c5ccccc45)CC3)c12
  Emax: 59%

## CC(=O)c1c(C)n(CCCN2CCC3(CC2)CC(=O)c2ccccc2O3)c2c(Br)cccc12
  Emax: 8%

## CCc1cccc2c(C(C)=O)cn(CCCN3CCCC(Oc4ccc(Cl)cc4)C3)c12 (stereo not drawn)
  Emax: 13%

## COc1cccc2c(C(C)=O)cn(CC(C)CN3CCC4(CC3)CC(=O)c3ccccc3O4)c12 (stereo not drawn)
  Emax: 55%

## CC(CN1CCC2(CC1)CC(=O)c1ccccc1O2)Cn1cc(C(=O)C(F)(F)F)c2cccnc21 (stereo not drawn)
[1]
  Emax: 26%

## O=C(c1cn(CCCN2CCCC(Oc3ccc(Cl)cc3)C2)c2ncccc12)C(F)(F)F (stereo not drawn)
[1]
  Emax: 2%

## O=C(c1cn(CCCN2CCC(CCOc3ccc(Cl)cc3)CC2)c2ncccc12)C(F)(F)F
[1]
  Emax: 37%

## COc1cccc2c(C#N)cn(CCCN3CCC4(CC3)CC(=O)c3ccccc3O4)c12
[1]
  Emax: 41%

## COc1cccc2c(C#N)cn(CCCN3CCC(CCOc4ccc(Cl)cc4)CC3)c12
[1]
  Emax: -3%

## CC(=O)c1cn(CCCN2CCC(CCOc3ccc(Cl)cc3)CC2)c2c(C#N)cccc12
  Emax: 27%

## CC(=O)c1c(C)n(CCCN2CCN(CCOc3ccc(Cl)cc3)CC2)c2c(Br)cccc12
  Emax: -13%

## CC(=O)c1c(C)n(CCCN2CCC(c3nc(-c4ccncc4)no3)CC2)c2c(Br)cccc12
  Emax: 25%

## CC(=O)c1c(C)n(CCCN2CCC(c3nc(-c4cccnc4)no3)CC2)c2c(Br)cccc12
  Emax: 12%

## CCc1cccc2c(C(C)=O)cn(CCCN3CCN(CCOc4ccc(Cl)cc4)CC3)c12
  Emax: 24%

## CCc1cccc2c(C(C)=O)cn(CCCN3CCC(c4nc(-c5cccnc5)no4)CC3)c12
  Emax: 61%

## COc1cccc2c(C(C)=O)cn(CC(C)CNCCOc3ccccc3)c12 (stereo not drawn)
  Emax: 29%

## COc1cccc2c(C(C)=O)cn(CC(C)CN3CCN(CCOc4ccccc4)CC3)c12 (stereo not drawn)
  Emax: -7%

## COc1cccc2c(C(C)=O)cn(CC(C)CN3CCCN(CCc4ccccc4)CC3)c12 (stereo not drawn)
  Emax: 31%

## COc1cccc2c(C(C)=O)cn(CC(C)CN3CCC(c4nc(-c5ccncc5)no4)CC3)c12 (stereo not drawn)
  Emax: 78%

## COc1cccc2c(C(C)=O)cn(CC(C)CN3CCC(c4nc(-c5cccnc5)no4)CC3)c12 (stereo not drawn)
  Emax: 83%

## O=C(c1cn(CCCNC2Cc3ccccc3C2)c2ncccc12)C(F)(F)F
[1]
  Emax: -3%

## O=C(c1cn(CCCN2CCN(c3ncc(C(F)(F)F)cc3Cl)CC2)c2ncccc12)C(F)(F)F
[1]
  Emax: 27%

## O=C(c1cn(CCCN2CCN(CCOc3ccc(Cl)cc3)CC2)c2ncccc12)C(F)(F)F
[1]
  Emax: 38%

## O=C(c1cn(CCCNCCOc2ccccc2)c2ncccc12)C(F)(F)F
[1]
  Emax: 26%

## O=C(c1cn(CCCN2CCCN(CCc3ccccc3)CC2)c2ncccc12)C(F)(F)F
[1]
  Emax: 51%

## O=C(c1cn(CCCN2CCC(c3nc(-c4ccncc4)no3)CC2)c2ncccc12)C(F)(F)F
[1]
  Emax: 31%

## O=C(c1cn(CCCN2CCC(c3nc(-c4cccnc4)no3)CC2)c2ncccc12)C(F)(F)F
[1]
  Emax: 72%

## CC(=O)c1cn(CCCN2CCN(CCOc3ccc(Cl)cc3)CC2)c2ncccc12
[1]
  Emax: 62%

## CC(=O)c1cn(CCCN2CCC(c3nc(-c4ccncc4)no3)CC2)c2ncccc12
[1]
  Emax: 88%

## COc1cccc2c(C#N)cn(CCCN3CCN(CCOc4ccc(Cl)cc4)CC3)c12
[1]
  Emax: -23%

## COc1cccc2c(C#N)cn(CCCN3CCN(CCOc4ccccc4)CC3)c12
[1]
  Emax: 42%

## COc1cccc2c(C#N)cn(CCCN3CCN(Cc4ccc(Cl)cc4Cl)CC3)c12
[1]
  Emax: 30%

## COc1cccc2c(C#N)cn(CCCN3CCC(c4nc(-c5cccnc5)no4)CC3)c12
[1]
  Emax: 23%

## O=C(c1cn(CCCN2CCN(CCOc3ccccc3)CC2)c2ncccc12)C(F)(F)F
[1]
  Emax: 27%

## CC(=O)c1cn(CCCN2C3CCC2CC(CC(=O)c2ccc(Cl)cc2)C3)c2ncccc12 (stereo not drawn)
[1]
  Emax: 11%
